The record followed here is ChEMBL document CHEMBL3991601, “The target landscape of clinical kinase drugs” (Science, 2017).

The source made the active and inactive calls. For most assays here, no stated cut-off is given here; in the data, actives have a measured Kd and inactives only a lower limit.

In test [1] the target is T1, Probable ATP-dependent RNA helicase DDX6 (Homo sapiens, UniProt P26196).
T1 sequence (P26196 whole entry): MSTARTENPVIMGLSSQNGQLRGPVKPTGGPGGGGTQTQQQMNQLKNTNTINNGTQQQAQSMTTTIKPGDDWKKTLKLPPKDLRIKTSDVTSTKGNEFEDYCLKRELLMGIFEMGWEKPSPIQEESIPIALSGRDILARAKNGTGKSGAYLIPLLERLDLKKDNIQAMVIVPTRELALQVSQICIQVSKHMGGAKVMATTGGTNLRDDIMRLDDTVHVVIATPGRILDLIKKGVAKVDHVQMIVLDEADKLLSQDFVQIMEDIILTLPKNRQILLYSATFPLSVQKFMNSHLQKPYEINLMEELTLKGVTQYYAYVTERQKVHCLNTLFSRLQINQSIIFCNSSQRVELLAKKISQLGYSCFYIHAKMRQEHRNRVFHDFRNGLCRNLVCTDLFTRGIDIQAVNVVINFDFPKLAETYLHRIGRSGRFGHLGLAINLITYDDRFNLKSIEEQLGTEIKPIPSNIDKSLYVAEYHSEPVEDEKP

For test [2], the target named is Protein-tyrosine kinase 2-beta (Homo sapiens, UniProt Q14289).
Chain of Protein-tyrosine kinase 2-beta (Q14289 whole entry): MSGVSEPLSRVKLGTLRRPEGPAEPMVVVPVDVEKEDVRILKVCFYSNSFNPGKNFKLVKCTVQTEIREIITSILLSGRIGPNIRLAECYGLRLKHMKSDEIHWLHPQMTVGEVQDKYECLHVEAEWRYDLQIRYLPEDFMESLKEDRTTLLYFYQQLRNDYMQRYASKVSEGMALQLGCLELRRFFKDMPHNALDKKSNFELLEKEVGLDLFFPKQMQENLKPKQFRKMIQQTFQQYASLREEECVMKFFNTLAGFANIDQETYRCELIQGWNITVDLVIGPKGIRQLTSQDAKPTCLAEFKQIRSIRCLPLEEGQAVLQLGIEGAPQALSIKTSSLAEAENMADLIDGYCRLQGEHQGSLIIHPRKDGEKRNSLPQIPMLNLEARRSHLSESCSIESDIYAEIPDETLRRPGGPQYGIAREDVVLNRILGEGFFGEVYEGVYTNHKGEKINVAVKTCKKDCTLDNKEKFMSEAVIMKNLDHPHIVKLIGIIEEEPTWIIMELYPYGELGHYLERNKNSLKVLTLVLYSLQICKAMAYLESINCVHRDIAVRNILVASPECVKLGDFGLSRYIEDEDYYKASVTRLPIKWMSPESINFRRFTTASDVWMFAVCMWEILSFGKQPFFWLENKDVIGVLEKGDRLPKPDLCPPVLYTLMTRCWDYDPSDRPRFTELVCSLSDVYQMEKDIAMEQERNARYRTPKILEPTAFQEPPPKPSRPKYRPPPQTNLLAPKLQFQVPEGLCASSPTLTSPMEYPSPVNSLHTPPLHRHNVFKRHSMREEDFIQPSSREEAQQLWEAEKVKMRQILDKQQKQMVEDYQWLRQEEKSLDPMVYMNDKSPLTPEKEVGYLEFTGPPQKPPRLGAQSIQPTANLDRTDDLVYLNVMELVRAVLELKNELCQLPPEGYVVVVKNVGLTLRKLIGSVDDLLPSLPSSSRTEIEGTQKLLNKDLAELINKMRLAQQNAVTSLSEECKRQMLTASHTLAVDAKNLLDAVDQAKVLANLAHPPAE
In test [3] the target is Ribosomal protein S6 kinase beta-1 (Homo sapiens, UniProt P23443).
For test [4], the target named is Mitogen-activated protein kinase kinase kinase 4 (Homo sapiens, UniProt Q9Y6R4).
Chain of Mitogen-activated protein kinase kinase kinase 4 (Q9Y6R4 whole entry): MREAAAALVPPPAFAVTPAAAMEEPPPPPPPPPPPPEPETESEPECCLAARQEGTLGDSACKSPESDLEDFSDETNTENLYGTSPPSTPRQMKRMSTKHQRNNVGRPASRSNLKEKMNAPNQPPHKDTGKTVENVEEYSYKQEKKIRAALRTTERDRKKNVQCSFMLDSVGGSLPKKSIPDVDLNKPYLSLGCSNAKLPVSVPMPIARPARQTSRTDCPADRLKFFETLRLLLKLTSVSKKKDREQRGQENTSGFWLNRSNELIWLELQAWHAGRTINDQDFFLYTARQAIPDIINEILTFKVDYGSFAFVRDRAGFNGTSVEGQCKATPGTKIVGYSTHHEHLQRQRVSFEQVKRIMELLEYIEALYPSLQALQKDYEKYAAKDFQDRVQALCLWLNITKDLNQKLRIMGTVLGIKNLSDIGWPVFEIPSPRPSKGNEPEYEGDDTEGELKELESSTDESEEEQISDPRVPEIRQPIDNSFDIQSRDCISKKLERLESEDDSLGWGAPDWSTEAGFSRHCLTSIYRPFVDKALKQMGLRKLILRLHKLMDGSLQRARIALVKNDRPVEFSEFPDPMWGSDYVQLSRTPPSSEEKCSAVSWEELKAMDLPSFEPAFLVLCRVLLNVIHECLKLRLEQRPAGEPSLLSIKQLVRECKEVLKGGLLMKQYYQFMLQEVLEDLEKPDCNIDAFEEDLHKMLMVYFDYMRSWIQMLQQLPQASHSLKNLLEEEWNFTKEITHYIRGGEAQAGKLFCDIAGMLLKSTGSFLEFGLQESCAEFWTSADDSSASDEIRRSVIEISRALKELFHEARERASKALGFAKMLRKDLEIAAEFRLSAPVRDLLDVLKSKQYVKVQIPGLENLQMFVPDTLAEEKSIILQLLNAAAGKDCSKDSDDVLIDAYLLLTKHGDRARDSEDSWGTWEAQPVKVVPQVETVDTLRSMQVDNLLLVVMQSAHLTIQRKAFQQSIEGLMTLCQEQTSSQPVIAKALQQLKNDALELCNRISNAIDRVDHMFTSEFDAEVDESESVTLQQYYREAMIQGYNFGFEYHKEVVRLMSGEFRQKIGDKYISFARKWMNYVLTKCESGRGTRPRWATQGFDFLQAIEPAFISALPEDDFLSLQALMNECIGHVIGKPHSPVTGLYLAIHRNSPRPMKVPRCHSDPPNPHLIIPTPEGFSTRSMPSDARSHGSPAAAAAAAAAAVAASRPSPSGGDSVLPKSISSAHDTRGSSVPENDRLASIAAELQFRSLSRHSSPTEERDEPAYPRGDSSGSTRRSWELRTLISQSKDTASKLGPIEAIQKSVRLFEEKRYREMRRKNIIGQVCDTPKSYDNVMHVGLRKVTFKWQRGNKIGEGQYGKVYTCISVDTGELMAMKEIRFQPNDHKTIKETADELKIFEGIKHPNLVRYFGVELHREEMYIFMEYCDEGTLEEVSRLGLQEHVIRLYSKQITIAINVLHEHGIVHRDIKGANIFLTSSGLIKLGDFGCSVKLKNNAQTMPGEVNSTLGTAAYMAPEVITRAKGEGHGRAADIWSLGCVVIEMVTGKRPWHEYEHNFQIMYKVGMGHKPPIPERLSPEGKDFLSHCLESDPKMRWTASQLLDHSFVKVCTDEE
Test [5] has as its target Ribosomal protein S6 kinase alpha-5 (Homo sapiens, UniProt O75582).
Test [6] deals with T2, Tyrosine-protein kinase Tec (Homo sapiens, UniProt P42680).
T2 sequence (P42680 whole entry): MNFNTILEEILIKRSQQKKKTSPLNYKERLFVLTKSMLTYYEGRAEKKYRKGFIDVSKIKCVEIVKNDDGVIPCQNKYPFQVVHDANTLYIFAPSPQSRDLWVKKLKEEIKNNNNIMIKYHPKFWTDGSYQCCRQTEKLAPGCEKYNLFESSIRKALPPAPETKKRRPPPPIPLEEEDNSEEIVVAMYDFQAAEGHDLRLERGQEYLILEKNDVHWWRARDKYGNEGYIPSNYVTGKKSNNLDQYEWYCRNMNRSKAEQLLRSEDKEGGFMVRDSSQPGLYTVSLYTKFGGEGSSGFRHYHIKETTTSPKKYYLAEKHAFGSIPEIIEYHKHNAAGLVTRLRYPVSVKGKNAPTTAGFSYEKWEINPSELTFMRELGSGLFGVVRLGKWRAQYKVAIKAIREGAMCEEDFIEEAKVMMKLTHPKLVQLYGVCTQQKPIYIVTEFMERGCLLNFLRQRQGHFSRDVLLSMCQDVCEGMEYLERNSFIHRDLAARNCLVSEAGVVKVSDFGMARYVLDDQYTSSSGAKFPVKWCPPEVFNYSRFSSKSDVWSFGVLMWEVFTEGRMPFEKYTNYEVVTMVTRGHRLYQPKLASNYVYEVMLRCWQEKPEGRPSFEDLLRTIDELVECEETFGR

Test [7] addresses Protein kinase C beta type (Homo sapiens, UniProt P05771).
Test [8] has as its target T3, Serine/threonine-protein kinase TAO1 (Homo sapiens, UniProt Q7L7X3).
T3 sequence (Q7L7X3 whole entry): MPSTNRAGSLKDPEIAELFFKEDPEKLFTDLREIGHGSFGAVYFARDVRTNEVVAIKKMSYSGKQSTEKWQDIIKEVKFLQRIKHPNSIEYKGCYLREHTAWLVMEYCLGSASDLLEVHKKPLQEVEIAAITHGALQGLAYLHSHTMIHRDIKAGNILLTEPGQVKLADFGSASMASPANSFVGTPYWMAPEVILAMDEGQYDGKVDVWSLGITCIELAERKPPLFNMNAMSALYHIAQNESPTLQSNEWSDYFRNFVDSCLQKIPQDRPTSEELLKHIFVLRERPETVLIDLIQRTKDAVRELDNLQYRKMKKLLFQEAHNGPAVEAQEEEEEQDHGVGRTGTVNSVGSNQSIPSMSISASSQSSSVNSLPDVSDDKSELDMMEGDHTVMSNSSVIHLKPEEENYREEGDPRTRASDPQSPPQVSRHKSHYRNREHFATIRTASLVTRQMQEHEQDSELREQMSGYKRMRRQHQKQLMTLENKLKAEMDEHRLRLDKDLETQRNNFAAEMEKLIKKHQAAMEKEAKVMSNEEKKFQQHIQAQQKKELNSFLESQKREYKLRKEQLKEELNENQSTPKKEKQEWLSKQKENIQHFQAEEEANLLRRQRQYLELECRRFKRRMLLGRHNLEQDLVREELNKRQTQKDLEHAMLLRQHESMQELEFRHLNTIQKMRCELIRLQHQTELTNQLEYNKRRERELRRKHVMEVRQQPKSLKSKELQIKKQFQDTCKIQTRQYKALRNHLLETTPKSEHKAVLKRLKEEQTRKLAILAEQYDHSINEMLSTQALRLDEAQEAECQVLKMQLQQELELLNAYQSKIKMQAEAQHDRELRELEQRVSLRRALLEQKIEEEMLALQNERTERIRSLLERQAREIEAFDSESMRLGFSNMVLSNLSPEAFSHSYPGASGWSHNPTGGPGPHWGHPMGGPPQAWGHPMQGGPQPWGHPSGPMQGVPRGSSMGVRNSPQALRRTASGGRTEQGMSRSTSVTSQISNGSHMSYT

The target in test [9] is Casein kinase II subunit alpha' (Homo sapiens, UniProt P19784).
Chain of Casein kinase II subunit alpha' (P19784 whole entry): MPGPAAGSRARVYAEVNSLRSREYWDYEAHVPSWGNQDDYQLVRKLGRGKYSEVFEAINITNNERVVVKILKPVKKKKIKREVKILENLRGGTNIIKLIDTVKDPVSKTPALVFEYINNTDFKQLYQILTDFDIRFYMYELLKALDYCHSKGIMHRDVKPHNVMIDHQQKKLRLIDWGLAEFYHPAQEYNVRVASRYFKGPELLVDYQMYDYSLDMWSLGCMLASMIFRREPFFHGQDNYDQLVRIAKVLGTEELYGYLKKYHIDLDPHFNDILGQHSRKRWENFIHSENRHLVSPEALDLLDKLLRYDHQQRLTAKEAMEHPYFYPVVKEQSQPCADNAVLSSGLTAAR
Test [10] deals with Serine/threonine-protein kinase MRCK beta (Homo sapiens, UniProt Q9Y5S2).
For test [11], the target named is Ephrin type-A receptor 7 (Homo sapiens, UniProt Q15375).
Test [12] deals with Dual specificity protein kinase CLK1 (Homo sapiens, UniProt P49759).
Chain of Dual specificity protein kinase CLK1 (P49759 whole entry): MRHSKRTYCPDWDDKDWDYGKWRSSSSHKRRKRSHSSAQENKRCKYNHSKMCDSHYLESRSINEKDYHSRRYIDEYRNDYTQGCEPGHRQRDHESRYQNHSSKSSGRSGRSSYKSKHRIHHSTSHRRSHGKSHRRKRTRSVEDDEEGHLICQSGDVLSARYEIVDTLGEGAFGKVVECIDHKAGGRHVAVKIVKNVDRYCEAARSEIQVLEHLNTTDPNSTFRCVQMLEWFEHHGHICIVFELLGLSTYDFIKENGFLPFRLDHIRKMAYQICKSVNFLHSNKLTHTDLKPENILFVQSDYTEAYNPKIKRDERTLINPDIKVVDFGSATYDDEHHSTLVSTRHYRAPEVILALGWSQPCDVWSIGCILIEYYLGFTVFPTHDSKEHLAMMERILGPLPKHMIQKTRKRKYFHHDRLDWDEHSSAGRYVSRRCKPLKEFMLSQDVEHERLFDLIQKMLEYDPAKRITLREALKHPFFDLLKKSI

Chain of Protein kinase C beta type (P05771 whole entry): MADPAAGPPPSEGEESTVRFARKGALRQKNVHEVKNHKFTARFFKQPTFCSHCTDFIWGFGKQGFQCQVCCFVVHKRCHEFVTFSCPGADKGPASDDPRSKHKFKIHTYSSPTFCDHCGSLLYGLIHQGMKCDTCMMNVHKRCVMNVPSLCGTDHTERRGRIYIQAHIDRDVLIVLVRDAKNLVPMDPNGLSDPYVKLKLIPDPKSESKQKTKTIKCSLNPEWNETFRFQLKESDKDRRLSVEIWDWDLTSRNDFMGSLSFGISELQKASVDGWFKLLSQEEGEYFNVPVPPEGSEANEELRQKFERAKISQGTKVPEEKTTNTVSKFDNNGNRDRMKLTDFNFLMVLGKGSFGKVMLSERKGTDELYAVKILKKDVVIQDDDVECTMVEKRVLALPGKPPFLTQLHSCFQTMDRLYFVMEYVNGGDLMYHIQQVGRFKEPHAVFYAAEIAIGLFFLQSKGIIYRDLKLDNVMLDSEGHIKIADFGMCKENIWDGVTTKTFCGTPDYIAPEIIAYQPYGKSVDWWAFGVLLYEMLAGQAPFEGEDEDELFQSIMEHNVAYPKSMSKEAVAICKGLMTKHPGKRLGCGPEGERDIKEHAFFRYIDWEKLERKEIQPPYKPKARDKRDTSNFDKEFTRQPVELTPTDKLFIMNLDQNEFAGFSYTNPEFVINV
Chain of Ribosomal protein S6 kinase alpha-5 (O75582 whole entry): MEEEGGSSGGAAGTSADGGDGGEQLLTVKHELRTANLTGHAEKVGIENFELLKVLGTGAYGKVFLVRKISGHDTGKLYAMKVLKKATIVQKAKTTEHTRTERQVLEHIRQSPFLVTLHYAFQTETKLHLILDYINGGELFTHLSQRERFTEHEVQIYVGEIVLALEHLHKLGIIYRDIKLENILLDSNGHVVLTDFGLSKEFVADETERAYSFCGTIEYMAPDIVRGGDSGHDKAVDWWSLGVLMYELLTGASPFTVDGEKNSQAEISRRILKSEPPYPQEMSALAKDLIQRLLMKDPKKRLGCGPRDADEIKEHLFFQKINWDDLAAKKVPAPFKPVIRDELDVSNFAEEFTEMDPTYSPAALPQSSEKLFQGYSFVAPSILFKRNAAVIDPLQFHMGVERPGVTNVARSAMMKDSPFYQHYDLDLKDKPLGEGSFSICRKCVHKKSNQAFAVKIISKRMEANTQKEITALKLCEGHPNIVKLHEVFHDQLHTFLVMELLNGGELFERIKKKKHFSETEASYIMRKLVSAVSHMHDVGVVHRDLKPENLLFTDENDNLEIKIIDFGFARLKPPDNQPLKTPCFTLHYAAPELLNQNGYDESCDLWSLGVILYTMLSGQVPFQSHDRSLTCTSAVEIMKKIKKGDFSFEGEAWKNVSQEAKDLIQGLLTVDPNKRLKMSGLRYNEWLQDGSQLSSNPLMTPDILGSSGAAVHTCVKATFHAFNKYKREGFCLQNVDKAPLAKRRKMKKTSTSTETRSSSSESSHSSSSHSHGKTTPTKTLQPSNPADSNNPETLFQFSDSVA

The Kd is the constant that tells how readily two partners part at equilibrium. For `COc1cc2ncnc(Nc3ccc(F)c(Cl)c3)c2cc1NC(=O)/C=C/CN1CCCCC1` [DACOMITINIB ANHYDROUS], the Kd in test [1], in test [2], in test [3], in [4], in [5] and in [6] was > 30 µM (inactive) in each case. Further, the Kd in test [7], in test [8], in test [9], in test [10], in test [11] and in test [12] was > 30 µM (inactive) each time.

With `COCCN1CCN(Cc2ccc(-c3n[nH]c4c3C(=O)c3c(NC(=O)NN5CCOCC5)cccc3-4)cc2)CC1` [RGB-286638], the Kd in [1], in test [2], in [3], in test [4], in test [5] and in test [6] was > 30 µM (inactive) in each case. The Kd was > 30 µM (inactive) in [7]; > 30 µM (inactive) in test [8]; 0.008 µM (active) in test [9]; 1.02 µM (active) in [10]; > 30 µM (inactive) in test [11]; 0.002 µM in [12].

In the case of `CNC(=O)c1cccc(-c2ccc3c(N4CCOC[C@@H]4C)nc(N4CCOC[C@@H]4C)nc3n2)c1` [VISTUSERTIB], the Kd in test [1], in [2], in test [3], in test [4], in [5] and in test [6] was > 30 µM (inactive) each time. In addition, the Kd in test [7], in [8], in test [9], in [10], in [11] and in test [12] was > 30 µM (inactive) in each case.

On to `COc1cc2nccc(Oc3ccc(NC(=O)C4(C(=O)Nc5ccc(F)cc5)CC4)cc3)c2cc1OC` [CABOZANTINIB], for which the Kd in [1], in test [2], in test [3], in test [4], in [5] and in [6] was > 30 µM (inactive) in each case. Further, the Kd in [7], in [8], in test [9], in [10], in test [11] and in test [12] was > 30 µM (inactive) each time.

Consider `Cc1cc(Nc2nc(N[C@@H](C)c3ncc(F)cn3)ncc2Cl)n[nH]1` [AZD-1480], for which the Kd in test [1] is > 30 µM (inactive); in test [2], 1.88 µM (active); in test [3] it was > 30 µM (inactive); in test [4], > 30 µM (inactive); in [5], > 30 µM (inactive); in test [6] it was > 30 µM (inactive). For the same compound, the Kd in [7] is > 30 µM (inactive); in [8], > 30 µM (inactive); in test [9] it was 3.96 µM (active); in test [10], > 30 µM (inactive); in test [11], > 30 µM (inactive); in test [12], > 30 µM (inactive).

As for `O=C(Nc1ccc(OC(F)(F)F)cc1)c1sccc1NCc1ccnc2ccccc12` [OSI-930], the Kd in test [1], in test [2], in test [3], in test [4], in test [5] and in test [6] was > 30 µM (inactive) each time. The Kd in test [7], in test [8], in test [9], in test [10], in test [11] and in test [12] was > 30 µM (inactive) in each case.

As for `COc1cccc2cc(-c3nc([C@H]4CC[C@H](C(=O)O)CC4)n4ncnc(N)c34)[nH]c12` [OSI-027], the Kd in test [1], in test [2], in [3], in [4], in [5] and in test [6] was > 30 µM (inactive) in each case. Also, the Kd in [7] was > 30 µM (inactive); in test [8] it was > 30 µM (inactive); in test [9] it was 1.6 µM (active); in [10], > 30 µM (inactive); in test [11], > 30 µM (inactive); in test [12], > 30 µM (inactive).

In the case of `CNC(=O)c1ccc(Nc2ncc(C(F)(F)F)c(NCc3nccnc3N(C)S(C)(=O)=O)n2)cc1` [DEFACTINIB], the Kd in test [1] is > 30 µM (inactive); in test [2], 0.423 µM (active); in test [3], > 30 µM (inactive); in test [4], > 30 µM (inactive); in test [5], > 30 µM (inactive); in test [6] it was > 30 µM (inactive). Moreover, the Kd in test [7] was > 30 µM (inactive); in test [8], 3.23 µM (active); in test [9], 1.2 µM (active); in [10] it was > 30 µM (inactive); in test [11] it was > 30 µM (inactive); in test [12] it was > 30 µM (inactive).

As to `Cc1c(Cn2c(C)nc3c(C(=O)O)cc(N4CCOCC4)cc32)cccc1C(F)(F)F` [GSK-2636771], the Kd in test [1], in test [2], in [3], in [4], in [5] and in test [6] was > 30 µM (inactive) in each case. Besides, the Kd in [7], in test [8], in [9], in [10], in test [11] and in test [12] was > 30 µM (inactive) throughout.

As to `COc1cccc(Nc2ncnn3ccc(CN4CC[C@@H](N)[C@H](O)C4)c23)c1` [BMS-690514], the Kd in test [2], in [3], in test [4], in [5], in test [6] and in test [7] was > 30 µM (inactive) throughout. Moreover, the Kd in [8], in test [10], in [11] and in [12] was > 30 µM (inactive) in each case.
